Experimental data: PMC2667487, “Cellular localization of kinin B1 receptor in the spinal cord of streptozotocin-diabetic rats with a fluorescent [N^α-Bodipy]-des-Arg^9-bradykinin” (Journal of Neuroinflammation, 2009)

What was measured:
B2 receptors = conditions: via B2 receptors, protein kinase C; cited from earlier work
Description: (§1) NF-κB upregulates B1R upon binding to its nuclear promoter.

[1] = system: B1R in primary microglial cells; conditions: cited from earlier work
Description: as §1

[2] = system: B1R in primary microglial cells; assay: B1R induction and BdABK labeling in primary cultured microglial cells; format: cell-based, rat; conditions: 300 nM BK, 24 h
Description: Mixed glial cultures were prepared following the protocol of McCarthy and de Vellis with some modifications. Briefly, forebrains were dissected out from one litter of 2-day-old Sprague-Dawley rat pups and the meninges were stripped off before enzymatic and mechanical dissociation. For enzymatic dissociation, HBSS containing 0.25% trypsin (Gibco 15090-046) was used. The tissue-trypsin suspension was incubated for 20 min at 37°C in a water bath with intermittent shaking. After the waiting time for the trypsin digestion is over we added to the tissue-trypsin suspension a mixture of prewarmed DMEM/Dnase I (Sigma DN-25, Dnase I final concentration 0. 25 mg/ml) followed by an incubation for 4 min at 37°C. The resulting suspension was dispersed by a mild mechanical trituration which consisted in the passage through 18-, 22- and 25- gauge needles. This cell suspension was then filtred through 70 μm strainer (BD Falcon 352350). After extensive washs in prewarmed HBSS, these dissociated cells were resuspended and plated in 75-cm^2 Falcon tissue-culture flasks (BD Biosciences) previously coated with 10 μg/ml poly-D-lysine (PDL). These mixed cells were growing at 37°C and 5% CO2 in DMEM (Gibco) supplemented with 10% FBS, penicillin (100 units/ml), and streptomycin ([…]). The media was changed every 2 or 3 days thereafter. […]

Q: Which results are given for “BK: bradykinin, preferential B2R agonist; used to induce B1R in microglia (RPPGFSPFR; Bradykinin; UniProt P01042 381-389, looked up)”?
A: intracellular calcium and NF-κB activation (B2 receptors): induces elevation of intracellular calcium leading to the phosphorylation and activation of NF-κB; B1R expression in cultured rat microglia exposed to BK [1]: B1R can be expressed in cultured rat microglia; induction of B1R in primary microglial cells [2]: B1R was induced
